Test results from patent US20080242542A1, “INDANILINE DYE, THERMAL TRANSFER RECORDING INK SHEET, THERMAL TRANSFER RECORDING METHOD, COLOR TONER, INKJET INK, AND COLOR FILTER” (FUJIFILM Corporation, priority 2007, published 2008).

test: Light fastness of recorded image under Xe light; assay type: physicochemical; details: Xe light (17000 lux) for 7 days; retention of reflection density 1.0
Method: Next, the recorded samples were exposed to an Xe light (17000 lux) for 7 days, and rested for the light stability (light fastness) of the recorded images. After the exposure, the status A reflection density of the part of each sample having an original status A reflection density of 1.0 before the exposure was measured, and the retention (by percentage) to the reflection density of 1.0 after exposure to that before exposure indicates the image stability. With the retention percentage, the samples were ranked in three, A (from 80% to less than 100%), B (from 60% to less than 80%) , C (less than 60%).

Structure (SMILES)	Light Fastness
CCN(CC)c1ccc(N=C2C=C(NC(C)=O)C(=O)C(Cl)=C2C)c(C)c1 [Comparative Dye 4]	A (A (from 80% to less than 100%))
CCN(CC)c1ccc(N=C2C=C(NC(=O)c3ccccc3)C(=O)C(Cl)=C2C)c(C)c1 [Comparative Dye 5]	A (A (from 80% to less than 100%))

Next, values leading:

Light Fastness	Structure (SMILES)
A (A (from 80% to less than 100%))	CCC(=O)NC1=CC(=Nc2ccc(N(CC)CC)cc2)C(C)=C(Cl)C1=O [Compound (1)]
A (A (from 80% to less than 100%))	CCN(CC)c1ccc(N=C2C=C(NC(C)=O)C(=O)C(Cl)=C2C)cc1 [Comparative Dye 1]
B (B (from 60% to less than 80%))	CCN(CC)c1ccc(N=C2C=C(NC(C)=O)C(=O)C=C2C)c(C)c1 [Comparative Dye 3]

test: Absorption spectrometry in ethyl acetate solution; assay type: physicochemical; details: 1×10^−6 mol/L, optical path length 10 mm
Method: The thus-obtained compounds (1) to (4) were analyzed for absorption spectrometry in an ethyl acetate solution (concentration: 1×10^−6 mol/L, optical path length; 10 mm). The data of ^1H NMR spectrometry (in heavy chloroform) and MS spectrometry of the obtained compounds (1) to (4) are shown in Table 1 below.

Maximum Absorption Wavelength [nm]	Structure (SMILES)
626	CCC(=O)NC1=CC(=Nc2ccc(N(CC)CC)cc2)C(C)=C(Cl)C1=O [Compound (1)]
